Data on three compounds can be found in patent US20240285586A1, “METHODS FOR TREATING BACTERIAL CELL POPULATIONS” (THE HONG KONG POLYTECHNIC UNIVERSITY, priority 2021, published 2024).

Values after ≈ are worked out from the molar mass of the structure shown. Values joined by “and” are separate entries in the source; they are usually repeats but may differ in a detail not shown here. Equal entries are not always repeated. Residues, ends and D or L forms follow the SMILES beside them. *: point of attachment. βNA = c1ccc2cc(N*)ccc2c1

In series [1] the test system is Escherichia coli BW25113. The series is described as follows: Effect of PAβN on bacterial growth rate. The following applies: PAβN 100 μM in LB broth. It counts as cell-based. The protocol: Assessment of effect of PAβN on bacterial growth rate. The overnight culture of the Escherichia coli BW25113 strain was diluted 1:100 in LB Broth, followed by addition of 100 μM PAβN; a sample in which only saline was added was included as negative control. OD600 value was tested at different time points.

Series [2] has as its system E. coli tolerant cells. As to the kind of experiment: Scanning electron microscopy of tolerant cells. Format: cell-based, Escherichia coli. The following applies: for cell morphology under SEM: 24 hours. The protocol:
Electron microscopy analysis. E. coli which had been subjected to starvation for 24 hours were treated with econazole alone, ampicillin alone and a combination of econazole and ampicillin for 24 hours, followed by examination under scanning electron microscopy (SEM). Cells treated with saline were included as negative control. Briefly, bacterial cells were fixed in 0.4% polyoxymethylene overnight and then in Osmium tetroxide (OsO4) for 2 hrs, followed by washing for three times with PBS. The cells were then dehydrated using pure ethanol, and infiltrated and embedded in Spurr resin for examination by SEM.

The test system of series [3] is E. coli BW25113::ΔndhΔnuoI. The series is described as follows: Starvation-induced tolerance assay, ΔndhΔnuoI double knockout. The following applies: ampicillin for six days. It counts as cell-based, Escherichia coli. The protocol:
(§1) Tolerance assay. […] Standard serial dilution and plating on LB agar was performed before and after ampicillin treatment for 4 hrs, 2 days, 4 days and 6 days to determine the fraction of the test population that survived at different time points during the course of treatment.

Series [4] has as its system E. coli BW25113 ΔpspA. Format: cell-based, Escherichia coli. The protocol:
as §1
(§2) Standard serial dilution and plating on LB agar was performed on samples collected every 24 hrs to assess changes in the size of the sub-population that survived during the treatment process.

Series [5] deals with E. coli ΔtolC mutant. The series is described as follows: Starvation-induced tolerance assay, ΔtolC knockout. Format: cell-based, Escherichia coli. The following applies: ampicillin for six days. The method, then: as §1
The subject of series [6] is E. coli BW25113. The series is described as follows: Starvation-induced tolerance assay, wild type E. coli. It counts as cell-based, Escherichia coli. The method, then:
as §1, §2
(§3) Upon reaching the exponential phase, bacteria were washed and re-suspended in saline (0.9% NaCl), and then incubated at 37° C. under constant shaking (250 rpm/min) for 24 hrs. […] Standard serial dilution and plating on LB agar were performed before and after ampicillin treatment for 4 hrs, 1 day, 2 days and 4 days to determine the fraction of the test population that survived at different time points during the course of treatment.

Series [7] concerns E. coli BW25113::ΔnuoI. The series is described as follows: Starvation-induced tolerance assay, ΔnuoI knockout. Format: cell-based, Escherichia coli. The following applies: 24 hrs starvation, then six days of ampicillin treatment. The protocol: as §1
For series [8], the system named is S. aureus. The series is described as follows: Starvation-induced tolerance assay, S. aureus. Format: cell-based, Staphylococcus aureus. The method, then:
as §1, §2, §3

Series [9] deals with carbapenem resistant E. coli J53 strain which expressed the carbapenemase NDM-1. The series is described as follows: Starvation-induced tolerance assay, carbapenem-resistant E. coli. It counts as cell-based, Escherichia coli. The following applies: econazole + sub-lethal dose of meropenem (40 μg/ml), nutrient starvation. The protocol: Upon reaching the exponential phase, bacteria were washed and re-suspended in saline (0.9% NaCl), and then incubated at 37° C. under constant shaking (250 rpm/min) for 24 hrs. […]

Series [10] has as its system E. coli J53 (mcr-1). As to the kind of experiment: MIC of colistin in presence and absence of compound, broth dilution. It counts as cell-based, Escherichia coli. The following applies: antibiotic resistant E. coli (FIG. 20).
Series [11] concerns K. pneumoniae. As to the kind of experiment: Starvation-induced tolerance assay, K. pneumoniae. It counts as cell-based, Klebsiella pneumoniae. The method, then:
as §1, §2, §3

Series [12] relates to S. aureus ATCC29213. As to the kind of experiment: Minimal inhibitory concentration, S. aureus. The following applies: Staphylococcus aureus, 16 hours, Mueller Hinton Broth. It counts as cell-based. The text has this: (§4) Determination of Minimal Inhibitory Concentrations (MICs).
In series [13] the test system is A. baumannii. The series is described as follows: Starvation-induced tolerance assay, A. baumannii. Format: cell-based, Acinetobacter baumannii. The protocol: as §1, §2, §3
Series [14] relates to S. typhimurium PY1. The series is described as follows: Mouse peritonitis infection (tolerance sepsis) model. It counts as in vivo. The method, then:
NIH male mice of about six-weeks-old with body weight of ˜20 g were used, 6 mice per group. The animals were allowed to acclimate to the housing facility for 5 days. The mice were made neutropenic by administering 150 mg/kg cyclophosphamide 3 days and 1 day before infection. Different amounts of S. typhimurium strain PY01 (2.8×10^5 CFU, 7.6×10^5 CFU or 1.5×10^6 CFU) were inoculated into the animals via intraperitoneal injection. The mice were subjected to ceftazidime (20 mg/kg), econazole (20 mg/kg) or ceftazidime combining econazole treatment (i.p.) 24 h after inoculation, at 12 hrs intervals for 72 hrs randomly. The mortality rate of the test mice was recorded every 12 hrs. After 72 h of treatment, live mice were euthanized and subjected to peritoneal washes which involved injection of 2 mL of saline into the intraperitoneal space, followed by abdominal massage. The abdomen was then cut open and 200 μL of peritoneal fluid were collected and serially diluted in saline. A 100 μL portion of each dilution was spread on LB plates, followed by incubation overnight at 37° C. Colonies were counted to determine the bacterial load in the test samples, which were expressed as CFU/ml. Statistical analysis and ethic approval were the same as described above.

Series [15] concerns Gram negative strains. As to the kind of experiment: Minimal inhibitory concentration, Gram negative strains. Format: cell-based. The following applies: all Gram negative test strains.
From the text: as §4

The conditions of series [16]: general statement; cited from earlier work.
Series [17] has as its system S. aureus. The series is described as follows: Membrane potential assay DiSC3(5), S. aureus. Format: cell-based, Staphylococcus aureus. The following applies: econazole 40 μM, cells starved 24 hrs. The method, then:
(§5) Assessment of effect of econazole on membrane potential. Fluorometric measurement of membrane potential of bacterial cells was performed using the voltage-sensitive dye DiSC3(5). The test organisms were first subjected to starvation for 24 hrs and then centrifuged and washed twice with PBS. The cell pellet was resuspended in PBS containing 100 mM of KCl to a final concentration of OD 0.2. The cells were incubated with 1 μM of DiSC3(5) for 5 min under shaking in dark. The cells were treated with econazole (40 μM); a no treatment control was included. The fluorometric measurements were carried out on black polystyrene microtiter plates using a Clariostar Microplate Reader (BMG LABTECH), with excitation wavelength at 610 nm and emission wavelength at 660 nm.

Series [18] has as its system E. coli. As to the kind of experiment: Membrane potential assay DiSC3(5), E. coli. It counts as cell-based, Escherichia coli. The following applies: econazole 40 μM, cells starved 24 hrs.
Protocol: Membrane potential assay. The transmembrane electrical potential was measured by using a membrane potential-sensitive probe, DiSC3(5). Bacterial population in either the exponential phase (OD600 of 0.2) or under 24 hrs starvation (resuspended in saline) were collected by centrifugation (6000×g, 2 mins), washed twice and re-suspended in PBS (pH 7.4), and then adjusted to OD600 of 0.2. KCl and DiSC3(5) were added until final concentration of 100 mM and 1 μM was respectively reached, followed by incubation at room temperature for 25 mins in the dark to allow the dye to penetrate through the outer membrane and produce a quenching effect. […] The fluorescence reading was monitored by using a Clariostar Microplate Reader (BMG LABTECH) at an excitation wavelength of 622±10 nm and an emission wavelength of 670±10 nm for 10 mins. Upon depolarization, the dye was rapidly released into the medium, resulting in dequenching and facilitating detection fluorometrically. […] The sample preparation method is same as that prior to testing with the Microplate Reader except for the last step. Briefly, cells were washed with PBS three times before confocal observation to remove extracellular DiSC3(5) dye. […] DiSC3(5) was excited by 638 nm laser and fluorescence was detected by HyD detector at emission wavelength 675±25 nm. The images were acquired and analyzed by the Leica Application Suite X (LAS X) software. […]
In series [19] the test system is P. aeruginosa. The series is described as follows: Membrane potential assay DiSC3(5), P. aeruginosa. It counts as cell-based, Pseudomonas aeruginosa. The following applies: econazole 40 μM, cells starved 24 hrs. The protocol:
as §5

Series [20] concerns P. aeruginosa. The series is described as follows: Starvation-induced tolerance assay, P. aeruginosa. It counts as cell-based, Pseudomonas aeruginosa. The method, then: as §1, §2, §3
In series [21] the test system is S. typhimurium. The series is described as follows: Starvation-induced tolerance assay, S. typhimurium. It counts as cell-based. The protocol:
as §1, §2, §3

Series [22] relates to E. coli BW25113. As to the kind of experiment: Mouse deep-seated thigh infection model. Format: in vivo, Escherichia coli. The protocol:
NIH mice were purchased from the Guangdong Center for Experimental Animals, Guangzhou, China. Male mice at ˜6 weeks of age with a weight of ˜20 g were used in the experiments, 6 mice per group. The animals were allowed to acclimate to the housing facility for 5 days. The mice were made neutropenic by administering 150 mg/kg cyclophosphamide 3 days and 1 day before infection. An inoculum of 1×10^6 CFU of E. coli BW25113 was injected into the right thigh of the mouse. At 24 hrs post-infection, the mice in each group received ceftazidime (20 mg/kg), econazole (20 mg/kg) or ceftazidime combining econazole treatment (i.p.) every 12 hrs for 72 hrs randomly. The mice were then euthanized and the infected thighs were aseptically excised and homogenized in PBS; the number of E. coli present in the samples was enumerated by serial dilution, spreading on LB plates, and incubation at 37° C. overnight. The population size of bacteria that survived different treatments was recorded, compared and analyzed by one-way ANOVA and post hoc Tukey test. The data were presented by using the Graph Pad Prism software. All experimental protocols followed the standard operating procedures of the Biosafety level 2 animal facilities approved by the Animal Ethics Committee of The City University of Hong Kong.

For the compound `N=C(N)NCCC[C@H](NC(=O)[C@@H](N)Cc1ccccc1)C(=O)Nc1ccc2ccccc2c1` [PAβN] (H-Phe-Arg-βNA), the “effect on bacterial growth” value in [1] is given as “did not exert any negative effect on bacterial growth”.

As to `CC1(C)S[C@@H]2[C@H](NC(=O)[C@H](N)c3ccccc3)C(=O)N2[C@H]1C(=O)O` [ampicillin], the “cell morphology under SEM” value in series [2] (ampicillin 100 μg/ml and 1000 μg/ml) is listed as “slight shrinkage in the pole areas”. In addition, the “reduction of the tolerant population” value in [3] is given as ~10^4 fold. Moreover, the “size of the tolerant population” value in [3] is approximately 200 cells/mL; in series [5], ~5×10^4 cells/mL. For the same compound, the “size of the antibiotic tolerant sub-population” value in series [4] (24 hrs starvation, then ampicillin 100 μg/mL for 6 days) is ~3×10^5 cells/mL; in series [6] (wild type, 24 hrs starvation, then ampicillin 100 μg/mL (~10×MIC) for 6 days) it was 4×10^6 cells/mL and ~2.5×10^7 cells/mL. Also, the “tolerant sub-population relative to that of wild type” value in series [4] (after 6 days of ampicillin treatment) is on record as 10%. In addition, the population size in series [7] was ~3.5×10^5 cell/mL.

As for `Clc1ccc(COC(Cn2ccnc2)c2ccc(Cl)cc2Cl)cc1` (stereo not drawn) [econazole], the “cell morphology under SEM” value is recorded as “cell membrane structure was severely damaged” in [2] (econazole 40 μM + ampicillin 100 μg/ml) and “rough cell surface, as well as leakage of intracellular material” in series [2] (econazole 40 μM alone). Besides, the “membrane damage or morphological changes” value in [2] (econazole, exponentially growing cells (data not shown)) was “not found to cause any detectable membrane damage or morphological changes”. The “effect of co-administration with ampicillin” value is “pronounced bactericidal synergistic effect” in series [8] (econazole + ampicillin); “pronounced bactericidal synergistic effect” in series [11] (econazole + ampicillin); “pronounced bactericidal synergistic effect” in series [13] (econazole + ampicillin); “pronounced bactericidal synergistic effect” in series [6] (econazole + ampicillin, E. coli); “pronounced bactericidal synergistic effect” in series [20] (econazole + ampicillin); “pronounced bactericidal synergistic effect” in series [21] (econazole + ampicillin). In addition, the “time to eradication of tolerant cells” value in series [8] (econazole alone, 40 μM) is not above 96 h. Also, in series [9], the “effect on the tolerant sub-population” value is “eradicate the tolerant sub-population”. Besides, the “effect of co-administration with colistin” value in series [10] is recorded as “bactericidal synergistic effect”. The “time to eradication of the entire tolerant sub-population” value in series [11] (econazole + ampicillin) and in series [13] (econazole + ampicillin) was not above 24 h in each case. Also, the “killing of tolerant cells” value in series [11] (econazole alone, 40 μM) is “slight killing effect”; in series [13] (econazole alone, 40 μM), “slight killing effect”; in series [20] (econazole alone, 40 μM), “slight killing effect”; in [21] (econazole alone, 40 μM), “slight killing effect”. The minimum inhibitory concentration (MIC) in series [12] is 40 µM (≈ 15.3 µg/mL); in series [15], more than 160 µM. Also, the “protection of the test animals compared with ceftazidime alone” value in series [14] (ceftazidime + econazole (20 mg/kg each), inoculation of 7.6×10^5 CFU) was “slightly more effective”. In addition, in [14] (ceftazidime + econazole, 7.6×10^5 CFU, after 72 h, P<0.0001), the “rate of eradication of PY1 tolerant cells in surviving mice” value is given as “significantly higher”. Moreover, the survival rate in [14] (econazole 20 mg/kg + ceftazidime 20 mg/Kg, 1.5×10^6 CFU) was 80%. The “time to eradication of the entire tolerant population” value in series [6] (econazole 40 μM + ampicillin 10×MIC) is 24 h. Further, the “treatment time at which all tolerant cells were killed” value in series [6] (econazole + ciprofloxacin (1 μg/ml)) and in [6] (econazole + gentamicin (20 μg/ml)) was 24 h each time. In addition, the “size of bacterial population that survived” value in series [6] (econazole + ciprofloxacin (1 μg/ml), 4 hrs) is given as “about 200 CFU/mL”; in series [6] (econazole + gentamicin (20 μg/ml), 4 hrs), “about 200 CFU/mL”. Further, in [6] (econazole alone, 4 hrs), the “size of the population that survived” value is on record as “about 1.7×10^5 CFU/mL”. In addition, the population size in series [6] (econazole alone, 24 hrs) was ~1×10^4 CFU/mL. For the same compound, the “toxicity or safety in human” value in series [16] is given as “proven safe”. Further, the “effect on PMF (DiSC3(5) fluorescence)” value in [17], in [18] and in series [19] was “caused dissipation of PMF” each time. Also, the “time to eradication of the tolerant sub-population” value in series [20] (econazole + ampicillin) and in series [21] (econazole + ampicillin) was not above 96 h each time. Besides, the “size of the tolerant population” value in series [21] (econazole + ceftazidime (100 μg/ml), within 96 hrs (FIG. 16F)) was approximately 500 CFU/mL. In addition, the “eradication of E. coli tolerant cells compared with ceftazidime (20 mg/Kg) alone” value was “significantly more” in series [22] (econazole 20 mg/kg + ceftazidime 20 mg/Kg i.p. every 12 hrs for 72 hrs, P=0.031) and “significantly more” in series [22] (econazole alone 20 mg/kg i.p. every 12 hrs for 72 hrs, P=0.026).
